14 compounds from ChEMBL document CHEMBL1687703, “Modification at the Lipophilic Domain of RXR Agonists Differentially Influences Activation of RXR Heterodimers” (ACS Med Chem Lett, 2010) can be followed below.

Active and inactive are the calls of the source. No cut-off for these calls is given here.

Assay [1] addresses T1, Retinoic acid receptor RXR-alpha (Homo sapiens, UniProt P19793).
T1 sequence (P19793 whole entry): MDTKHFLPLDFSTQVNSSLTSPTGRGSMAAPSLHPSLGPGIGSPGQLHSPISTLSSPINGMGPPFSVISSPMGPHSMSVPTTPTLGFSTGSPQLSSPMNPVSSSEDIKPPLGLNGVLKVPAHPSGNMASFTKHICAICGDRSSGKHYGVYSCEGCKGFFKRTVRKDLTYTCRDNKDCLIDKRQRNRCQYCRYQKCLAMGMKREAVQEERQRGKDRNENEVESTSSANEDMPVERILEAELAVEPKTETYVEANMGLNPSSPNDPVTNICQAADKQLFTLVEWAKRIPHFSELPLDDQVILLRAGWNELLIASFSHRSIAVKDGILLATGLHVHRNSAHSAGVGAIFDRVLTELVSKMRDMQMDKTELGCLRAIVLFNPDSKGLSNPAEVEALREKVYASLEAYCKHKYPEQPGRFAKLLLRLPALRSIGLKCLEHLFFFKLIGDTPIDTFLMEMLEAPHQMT
In words: Agonist activity at RXRalpha transfected in […] COS1 cells after 18 hrs by luciferase reporter gene transactivation assay. It is filed as functional, cell-based, COS-1. A general note: A reporter such as luciferase makes a cellular process visible.

For assay [2], the target named is T2, Oxysterols receptor LXR-alpha (Homo sapiens) (UniProt Q13133).
T2 sequence (whole entry): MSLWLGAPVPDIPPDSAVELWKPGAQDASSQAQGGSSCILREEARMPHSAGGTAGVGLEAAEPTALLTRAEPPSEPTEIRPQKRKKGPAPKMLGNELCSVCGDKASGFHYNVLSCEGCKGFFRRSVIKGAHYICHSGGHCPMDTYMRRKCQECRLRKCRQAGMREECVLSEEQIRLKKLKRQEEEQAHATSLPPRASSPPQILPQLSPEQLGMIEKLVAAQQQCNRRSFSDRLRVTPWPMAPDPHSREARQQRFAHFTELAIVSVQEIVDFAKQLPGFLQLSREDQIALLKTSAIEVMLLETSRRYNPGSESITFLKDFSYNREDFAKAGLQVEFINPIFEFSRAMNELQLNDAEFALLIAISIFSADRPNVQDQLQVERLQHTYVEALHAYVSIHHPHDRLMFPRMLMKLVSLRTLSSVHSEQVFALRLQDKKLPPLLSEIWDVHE
In words: Agonist activity at LXRalpha transfected in […] COS1 cells after 18 hrs by luciferase reporter gene transactivation assay. The assay is classed as functional, cell-based. Conditions: COS-1.

Assay [3] deals with Retinoic acid receptor RXR-alpha/oxysterols receptor LXR-alpha (Homo sapiens) (UniProt P19793+Q13133). In words: Agonist activity at LXRalpha/RXRalpha transfected in […] COS1 cells at 10^-7 to 10^-6 M after 18 hrs by luciferase reporter gene transactivation assay. It is filed as functional, cell-based. Conditions: COS-1.

On to `CCCOc1cc(N(CC)c2ccc(C(=O)O)cn2)ccc1C(C)C`, for which, in assay [1], the midpoint of the response, the EC50, lay at 0.45 µM. Regarding `CCN(c1ccc2c(c1)C(C)(C)CCC2(C)C)c1ccc(C(=O)O)cn1`, the outcome in assay [2] was Active. For `CCN(c1ccc(C(C)C)c(OC(C)C)c1)c1ccc(C(=O)O)cn1`, a half-maximal effect in assay [1] (EC50) was put at 0.066 µM.

With `CCN(c1ccc(C(C)C)c(OCCc2ccccc2)c1)c1ccc(C(=O)O)cn1`, in assay [1], a half-maximal response (EC50) required 0.33 µM. For `CCN(c1ccc(C(C)C)c(OCCCc2ccccc2)c1)c1ccc(C(=O)O)cn1`, the EC50 (in general, the concentration at which the effect is half-maximal) in assay [1] is 0.82 µM. Same read-out and setting: the result for `CCCCOc1cc(N(CC)c2ccc(C(=O)O)cn2)ccc1C(C)C` reads 0.18 µM. With `CCN(c1ccc(C(C)C)c(OCC(C)C)c1)c1ccc(C(=O)O)cn1`, in assay [2], the result was Active. As to `C=C(C)COc1cc(N(CC)c2ccc(C(=O)O)cn2)ccc1C(C)C`, the EC50 in assay [1] was found to be 0.11 µM. Regarding `CCCCCOc1cc(N(CC)c2ccc(C(=O)O)cn2)ccc1C(C)C`, the result in assay [3] was Active. In assay [1], this compound had an EC50 of 0.16 µM. Turning to `CCN(c1ccc(C(C)C)c(OCC=C(C)C)c1)c1ccc(C(=O)O)cn1`, a half-maximal effect in assay [1] (EC50) was put at 0.16 µM. The compound `CCN(c1ccc(C(C)C)c(OCC(F)(F)F)c1)c1ccc(C(=O)O)cn1` registered an EC50 in assay [1] of 0.16 µM.

In turn, `CCCCCCOc1cc(N(CC)c2ccc(C(=O)O)cn2)ccc1C(C)C` returned a 50% effective concentration (EC50) in assay [1] of 0.28 µM. Regarding `CCN(c1ccc(C(C)C)c(OCc2ccccc2)c1)c1ccc(C(=O)O)cn1`, the outcome in assay [3] was Active. The compound further displayed an EC50 in assay [1] of 0.16 µM. The corresponding values for `CCN(c1ccc(C(C)C)c(OCC2CC2)c1)c1ccc(C(=O)O)cn1` are “Active” and 0.29 µM.
